Measured values as given in PubChem BioAssay AID248 (DTP/NCI, 2004).
Where “and” joins values, the source holds several entries; their conditions need not be identical. Equal entries are not always repeated. Toxic doses and inconclusive results are not listed. Rule as the data show it: active = T/C of 150% or more; inactive = T/C below 125%.

Test system: L1210 leukemia ip in BDF1 mice, survival T/C
Test: NCI In Vivo Anticancer Drug Screen. Data for tumor model L1210 Leukemia (intraperitoneal) in B6D2F1 (BDF1) mice
Details: higher = longer survival
Method in brief: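 Tumor cells were implanted, animals were treated, and survival was followed. The result divides the treated measurement by the vehicle-control measurement.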

[1] = endpoint: mean survival time, dose: 100.0 mg/kg/injection, schedule: Q01DX001 (ip), vehicle: carboxymethylcellulose (CMC)
[2] = endpoint: mean survival time, dose: 100.0 mg/kg/injection, schedule: Q01DX001 (ip), vehicle: saline
[3] = endpoint: mean survival time, dose: 200.0 mg/kg/injection, schedule: Q01DX001 (ip), vehicle: carboxymethylcellulose (CMC)
[4] = endpoint: mean survival time, dose: 200.0 mg/kg/injection, schedule: Q01DX001 (ip), vehicle: saline
[5] = endpoint: mean survival time, dose: 400.0 mg/kg/injection, schedule: Q01DX001 (ip), vehicle: carboxymethylcellulose (CMC)
[6] = endpoint: mean survival time, dose: 400.0 mg/kg/injection, schedule: Q01DX001 (ip), vehicle: saline
[7] = endpoint: mean survival time, dose: 100.0 mg/kg/injection, schedule: Q01DX009 (ip), vehicle: saline
[8] = endpoint: mean survival time, dose: 100.0 mg/kg/injection, schedule: Q04DX002 (ip), vehicle: Klucel (hydroxypropylcellulose) (HPC)
[9] = endpoint: mean survival time, dose: 200.0 mg/kg/injection, schedule: Q04DX002 (ip), vehicle: Klucel (hydroxypropylcellulose) (HPC)
[10] = endpoint: mean survival time, dose: 400.0 mg/kg/injection, schedule: Q04DX002 (ip), vehicle: Klucel (hydroxypropylcellulose) (HPC)
[11] = endpoint: mean survival time, dose: 100.0 mg/kg/injection, schedule: Q01DX009 (ip), vehicle: other
[12] = endpoint: mean survival time, dose: 200.0 mg/kg/injection, schedule: Q01DX009 (ip), vehicle: other
[13] = endpoint: mean survival time, dose: 400.0 mg/kg/injection, schedule: Q01DX009 (ip), vehicle: other
[14] = endpoint: mean survival time, dose: 100.0 mg/kg/injection, schedule: Q01DX001 (ip), vehicle: saline with Tween-80
[15] = endpoint: mean survival time, dose: 200.0 mg/kg/injection, schedule: Q01DX001 (ip), vehicle: saline with Tween-80
[16] = endpoint: mean survival time, dose: 100.0 mg/kg/injection, schedule: Q04DX002 (ip), vehicle: saline with Tween-80
[17] = endpoint: mean survival time, dose: 200.0 mg/kg/injection, schedule: Q04DX002 (ip), vehicle: saline with Tween-80
[18] = endpoint: mean survival time, dose: 400.0 mg/kg/injection, schedule: Q04DX002 (ip), vehicle: saline with Tween-80
[19] = endpoint: mean survival time, dose: 25.0 mg/kg/injection, schedule: Q01DX009 (ip), vehicle: saline with Tween-80
[20] = endpoint: mean survival time, dose: 50.0 mg/kg/injection, schedule: Q01DX009 (ip), vehicle: saline with Tween-80
[21] = endpoint: mean survival time, dose: 100.0 mg/kg/injection, schedule: Q04DX003 (ip), vehicle: saline with Tween-80
[22] = endpoint: mean survival time, dose: 200.0 mg/kg/injection, schedule: Q01DX009 (ip), vehicle: saline with Tween-80
[23] = endpoint: mean survival time, dose: 200.0 mg/kg/injection, schedule: Q04DX003 (ip), vehicle: saline with Tween-80
[24] = endpoint: mean survival time, dose: 400.0 mg/kg/injection, schedule: Q04DX003 (ip), vehicle: saline with Tween-80

Measured: T/C

CN(C)c1ccc(/C=C/c2ccnc3ccccc23)cc1
inactive: endpoint: mean survival time, dose: 4.0 mg/kg/injection, schedule: Q01DX Z (ip), vehicle: saline 103 % of control | endpoint: mean survival time, dose: 5.0 mg/kg/injection, schedule: Q01DX010 (ip), vehicle: saline 94 % of control and 100 % of control | endpoint: mean survival time, dose: 6.0 mg/kg/injection, schedule: Q01DX Z (ip), vehicle: saline 103 % of control | endpoint: mean survival time, dose: 8.0 mg/kg/injection, schedule: Q01DX Z (ip), vehicle: saline 103 % of control | endpoint: mean survival time, dose: 10.0 mg/kg/injection, schedule: Q01DX009 (ip), vehicle: saline 93 % of control and 101 % of control | endpoint: mean survival time, dose: 10.0 mg/kg/injection, schedule: Q01DX010 (ip), vehicle: saline 98 % of control | endpoint: mean survival time, dose: 10.0 mg/kg/injection, schedule: Q01DX Z (ip), vehicle: saline 97 % of control | endpoint: mean survival time, dose: 20.0 mg/kg/injection, schedule: Q01DX009 (ip), vehicle: saline 95 % of control and 97 % of control | endpoint: mean survival time, dose: 20.0 mg/kg/injection, schedule: Q01DX010 (ip), vehicle: saline 100 % of control and 91 % of control | endpoint: mean survival time, dose: 40.0 mg/kg/injection, schedule: Q01DX009 (ip), vehicle: saline 95 % of control and 88 % of control | endpoint: mean survival time, dose: 40.0 mg/kg/injection, schedule: Q01DX010 (ip), vehicle: saline 93 % of control and 100 % of control | endpoint: mean survival time, dose: 50.0 mg/kg/injection, schedule: Q01DX001 (ip), vehicle: saline 101 % of control | endpoint: mean survival time, dose: 64.0 mg/kg/injection, schedule: Q01DX010 (iv), vehicle: saline 108 % of control | endpoint: mean survival time, dose: 80.0 mg/kg/injection, schedule: Q01DX009 (ip), vehicle: saline 101 % of control | [1] 103 % of control | [2] 97 % of control | endpoint: mean survival time, dose: 128.0 mg/kg/injection, schedule: Q01DX010 (iv), vehicle: saline 87 % of control | [3] 109 % of control | [4] 103 % of control | endpoint: mean survival time, dose: 256.0 mg/kg/injection, schedule: Q01DX010 (iv), vehicle: saline 92 % of control | [5] 106 % of control | endpoint: mean survival time, dose: 800.0 mg/kg/injection, schedule: Q01DX001 (ip), vehicle: carboxymethylcellulose (CMC) 97 % of control | endpoint: median survival time, dose: 10.0 mg/kg/injection, schedule: Q01DX009 (ip), vehicle: saline 100 % of control and 87 % of control | endpoint: median survival time, dose: 20.0 mg/kg/injection, schedule: Q01DX009 (ip), vehicle: saline 100 % of control and 87 % of control | endpoint: median survival time, dose: 40.0 mg/kg/injection, schedule: Q01DX009 (ip), vehicle: saline 93 % of control and 105 % of control | endpoint: median survival time, dose: 80.0 mg/kg/injection, schedule: Q01DX009 (ip), vehicle: saline 100 % of control and 87 % of control

CC(=O)Nc1snc(C)c1[N+](=O)[O-]
inactive: [2] 107 % of control | [4] 103 % of control | [6] 103 % of control

[Br][Ga]([Br])[Br]
inactive: [2] 100 % of control | [4] 101 % of control | [6] 103 % of control

CC1CC1C(=O)Cl (centres undefined)
inactive: endpoint: mean survival time, dose: 50.0 mg/kg/injection, schedule: Q01DX009 (ip), vehicle: saline 97 % of control | [7] 101 % of control

CNC(=O)Oc1ccccc1C(C)C
inactive: [8] 91 % of control | [9] 94 % of control | [10] 95 % of control and 98 % of control

CCCCCCCCCCCCCCCCSc1ccc(C)cc1
inactive: [11] 88 % of control | endpoint: mean survival time, dose: 100.0 mg/kg/injection, schedule: Q04DX003 (ip), vehicle: Klucel (hydroxypropylcellulose) (HPC) 89 % of control | [12] 88 % of control | endpoint: mean survival time, dose: 200.0 mg/kg/injection, schedule: Q04DX003 (ip), vehicle: Klucel (hydroxypropylcellulose) (HPC) 93 % of control | [13] 112 % of control | endpoint: mean survival time, dose: 400.0 mg/kg/injection, schedule: Q04DX003 (ip), vehicle: Klucel (hydroxypropylcellulose) (HPC) 96 % of control

CC(C)(C)c1cc(C(=S)N2CCOCC2)cc(C(C)(C)C)c1O
inactive: endpoint: mean survival time, dose: 100.0 mg/kg/injection, schedule: Q01DX001 (ip), vehicle: Klucel (hydroxypropylcellulose) (HPC) 103 % of control | endpoint: mean survival time, dose: 200.0 mg/kg/injection, schedule: Q01DX001 (ip), vehicle: Klucel (hydroxypropylcellulose) (HPC) 100 % of control | endpoint: mean survival time, dose: 400.0 mg/kg/injection, schedule: Q01DX001 (ip), vehicle: Klucel (hydroxypropylcellulose) (HPC) 86 % of control

O=C(CC=C(c1ccccc1)c1ccccc1)Nc1ccccc1
inactive: [14] 90 % of control | [15] 87 % of control

C#CCOC(=O)Nc1ccc(C)cc1
inactive: [1] 108 % of control | [3] 100 % of control | [5] 118 % of control

COc1ccc(CCNC(=O)NC(C)(C)C)cc1OC
inactive: [16] 97 % of control | [17] 94 % of control | [18] 97 % of control

CNC(=O)Oc1ccc(-c2ccccc2)cc1Cl
inactive: [19] 103 % of control and 106 % of control | [20] 94 % of control and 111 % of control | [14] 101 % of control | [16] 93 % of control and 101 % of control (2×) | [21] 98 % of control | [15] 93 % of control | [22] 94 % of control | [17] 96 % of control and 97 % of control and 100 % of control | [23] 95 % of control | endpoint: mean survival time, dose: 400.0 mg/kg/injection, schedule: Q01DX001 (ip), vehicle: saline with Tween-80 104 % of control | [18] 103 % of control and 107 % of control and 113 % of control | [24] 98 % of control

Cc1cc(C)c(NC(=O)C2CCCCC2C(=O)O)c(C)c1 (centres undefined)
inactive: [8] 99 % of control | [9] 92 % of control | [10] 99 % of control

O=C(Nc1ccccc1-c1ccccc1)c1ccc(Cl)cc1Cl
inactive: [8] 104 % of control | [9] 93 % of control | [10] 101 % of control

COc1c2ccoc2c(OCC=C(C)C)c2oc(=O)ccc12
inactive: [11] 98 % of control | endpoint: mean survival time, dose: 100.0 mg/kg/injection, schedule: Q04DX003 (ip), vehicle: saline sonified 107 % of control | [12] 111 % of control | endpoint: mean survival time, dose: 200.0 mg/kg/injection, schedule: Q04DX003 (ip), vehicle: saline sonified 102 % of control | [13] 95 % of control | endpoint: mean survival time, dose: 400.0 mg/kg/injection, schedule: Q04DX003 (ip), vehicle: saline sonified 97 % of control

CC(=O)Nc1ccc(N2CCN=N2)cc1
inactive: [19] 103 % of control | [20] 109 % of control | [21] 97 % of control

O=C(COc1cccc(Cl)c1Cl)NCc1ccc(Cl)cc1
inactive: endpoint: mean survival time, dose: 100.0 mg/kg/injection, schedule: Q01DX009 (ip), vehicle: saline with Tween-80 100 % of control | [22] 97 % of control | endpoint: mean survival time, dose: 400.0 mg/kg/injection, schedule: Q01DX009 (ip), vehicle: saline with Tween-80 96 % of control

CCOC(=O)CC1(C)CCC2C1C(=O)OC2(C)C (centres undefined)
inactive: [2] 105 % of control | [4] 104 % of control | [6] 110 % of control

ONc1ccccn1
inactive: [2] 95 % of control | [4] 95 % of control

CN(C)C=Nc1ccc([N+](=O)[O-])c2ccccc12
inactive: [21] 103 % of control | [23] 106 % of control | [24] 104 % of control

COc1c2ccoc2nc2ccc3c(c12)C=CC(C)(C)O3
inactive: endpoint: mean survival time, dose: 50.0 mg/kg/injection, schedule: Q01DX001 (ip), vehicle: carboxymethylcellulose (CMC) 98 % of control | [1] 104 % of control | [3] 104 % of control | [5] 98 % of control

O=C1NC(=O)C(F)(F)C(O)N1 (centres undefined)
inactive: endpoint: mean survival time, dose: 45.0 mg/kg/injection, schedule: Q01DX009 (ip), vehicle: saline 117 % of control | endpoint: mean survival time, dose: 65.0 mg/kg/injection, schedule: Q01DX009 (ip), vehicle: saline 94 % of control | [7] 92 % of control | endpoint: mean survival time, dose: 100.0 mg/kg/injection, schedule: Q04DX003 (ip), vehicle: saline 108 % of control | endpoint: mean survival time, dose: 150.0 mg/kg/injection, schedule: Q01DX009 (ip), vehicle: saline 97 % of control | endpoint: mean survival time, dose: 200.0 mg/kg/injection, schedule: Q04DX003 (ip), vehicle: saline 117 % of control | endpoint: mean survival time, dose: 220.0 mg/kg/injection, schedule: Q01DX009 (ip), vehicle: saline 90 % of control | endpoint: mean survival time, dose: 400.0 mg/kg/injection, schedule: Q04DX003 (ip), vehicle: saline 120 % of control
